Among the test systems are HOP-62 NSCLC; OVCAR-8 ovarian; UO-31 renal; SK-MEL-2 melanoma; NCI-H23 lung; EKVX NSCLC; KM20L2 colon; DLD-1 colon; SF-295 CNS; IGROV1 ovarian; SNB-78 CNS; DMS 114 small cell lung; LOX IMVI melanoma; SK-MEL-28 melanoma; OVCAR-4 ovarian; HCT-116 colon.
Holding throughout (assay): DTP human tumour cell line panel, 48 h

One may read the TGI as the concentration giving total growth inhibition. A low value points to greater sensitivity of the cells. The GI50 is the concentration giving 50% growth inhibition.

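Five concentrations, 48 hours, 96-well plates. The concentration for 50% growth inhibition is given as GI50. TGI is the concentration that stops growth completely.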 Bounds are passed on as bounds.

`CC(=O)C(C(=O)C(=O)Nc1cc(Cl)c(Cl)cc1Cl)c1csc(N)n1` (configuration not stated): the TGI with HOP-62 NSCLC, in the assay on OVCAR-8 ovarian, in the assay with UO-31 renal, with SK-MEL-2 melanoma, in the assay on NCI-H23 lung and in the assay on EKVX NSCLC was more than 100 µM each time. For the same compound, the TGI in the assay with KM20L2 colon, in the assay with DLD-1 colon, in the assay on SF-295 CNS, with IGROV1 ovarian, in the assay on SNB-78 CNS and in the assay with DMS 114 small cell lung was more than 100 µM throughout. Besides, the total growth inhibition concentration (TGI) in the assay on LOX IMVI melanoma, in the assay on SK-MEL-28 melanoma, in the assay with OVCAR-4 ovarian and in the assay on HCT-116 colon was more than 100 µM each time.
Take `CCCCCC1CC(C(C)=O)CN1c1ccc(F)cc1` (configuration not stated): the concentration for total growth inhibition (TGI) is more than 100 µM in the assay on OVCAR-8 ovarian; more than 100 µM in the assay with UO-31 renal; more than 100 µM in the assay with SK-MEL-2 melanoma; 63.8 µM in the assay with NCI-H23 lung; more than 100 µM in the assay on EKVX NSCLC; more than 100 µM in the assay with KM20L2 colon. The TGI in the assay on DLD-1 colon is more than 100 µM; in the assay on SF-295 CNS, 63.3 µM; with SNB-78 CNS, more than 100 µM; in the assay on DMS 114 small cell lung, 62 µM; in the assay with LOX IMVI melanoma, more than 100 µM; with SK-MEL-28 melanoma it was more than 100 µM. In the assay on HCT-116 colon, this compound gave a TGI of more than 100 µM.
With `O=[N+]([O-])c1cc(C(F)(F)F)cc2c1SC1=Nc3ccccc3CN12`, the total growth inhibition concentration (TGI) in the assay on HOP-62 NSCLC, in the assay on OVCAR-8 ovarian, in the assay with UO-31 renal, with SK-MEL-2 melanoma, in the assay on NCI-H23 lung and with EKVX NSCLC was more than 100 µM each time. For the same compound, the total growth inhibition concentration (TGI) in the assay on KM20L2 colon, in the assay with DLD-1 colon, with SF-295 CNS, in the assay with IGROV1 ovarian, in the assay on SNB-78 CNS and in the assay with DMS 114 small cell lung was more than 100 µM in each case. Further, the TGI in the assay with LOX IMVI melanoma, in the assay on SK-MEL-28 melanoma, with OVCAR-4 ovarian and in the assay on HCT-116 colon was more than 100 µM in each case.
Regarding `NCCCC(N)(C(=O)O)C(F)F` (configuration not stated), the TGI with HOP-62 NSCLC was more than 5000 µM; in the assay with OVCAR-8 ovarian, more than 1090 µM; with UO-31 renal it was more than 5000 µM; in the assay with SK-MEL-2 melanoma, more than 5000 µM; in the assay with NCI-H23 lung, more than 5000 µM; in the assay with EKVX NSCLC, more than 1260 µM. The concentration for total growth inhibition (TGI) in the assay with KM20L2 colon, in the assay with DLD-1 colon, in the assay with SF-295 CNS, in the assay on IGROV1 ovarian, in the assay with SNB-78 CNS and in the assay with DMS 114 small cell lung was more than 5000 µM each time. Also, the TGI in the assay with LOX IMVI melanoma, in the assay with SK-MEL-28 melanoma, in the assay on OVCAR-4 ovarian and with HCT-116 colon was more than 5000 µM throughout.
For the compound `O=C(N/N=C/c1cc(Cl)cc(Cl)c1[O-])c1ccccc1O.O=C(N/N=C/c1cc(Cl)cc(Cl)c1[O-])c1ccccc1O.[Cu+2]`, the TGI in the assay with HOP-62 NSCLC stood at 0.901 µM; in the assay on OVCAR-8 ovarian it was 1.08 µM; with UO-31 renal it was 1.41 µM; in the assay with SK-MEL-2 melanoma, 2.1 µM; in the assay with NCI-H23 lung it was 1.66 µM; in the assay on KM20L2 colon it was 2.28 µM. The concentration for total growth inhibition (TGI) in the assay on SF-295 CNS was 1.26 µM; in the assay on IGROV1 ovarian it was 1.16 µM; in the assay with LOX IMVI melanoma, 1.46 µM; with SK-MEL-28 melanoma it was 8.79 µM; in the assay on OVCAR-4 ovarian, 0.637 µM; in the assay with HCT-116 colon, 0.597 µM. The GI50 in the assay on SK-MEL-2 melanoma was 0.746 µM; in the assay with NCI-H23 lung, 0.436 µM; in the assay with KM20L2 colon, 0.909 µM; in the assay on HCT-116 colon it was 0.255 µM.
Take `CCn1c(=O)c2c3ccc(O)cc3[nH]c2c2ccc(O)cc21`: the TGI with HOP-62 NSCLC, in the assay with OVCAR-8 ovarian, in the assay with UO-31 renal, with NCI-H23 lung, in the assay on EKVX NSCLC and in the assay with SF-295 CNS was more than 100 µM in each case. The TGI with IGROV1 ovarian, with SK-MEL-28 melanoma, in the assay on OVCAR-4 ovarian and in the assay with HCT-116 colon was more than 100 µM in each case.
Take `CCN(CC)CCCNC(=O)c1ccccc1Nc1c(Cl)cccc1Cl`: the TGI with HOP-62 NSCLC came to 24.2 µM; in the assay on OVCAR-8 ovarian, 31.6 µM; in the assay with UO-31 renal, 20.3 µM; with NCI-H23 lung it was 30.9 µM; with EKVX NSCLC it was 25 µM; in the assay on KM20L2 colon, 5.58 µM. In addition, the TGI with DLD-1 colon is 23.8 µM; with IGROV1 ovarian, 34 µM; with SNB-78 CNS it was 31.7 µM; with DMS 114 small cell lung, 26.2 µM; in the assay on LOX IMVI melanoma it was 22.3 µM; with SK-MEL-28 melanoma it was 9.51 µM. The TGI with OVCAR-4 ovarian was 23 µM; in the assay on HCT-116 colon, 23.6 µM.
`CCC/C=C/C=C\C(=O)O[C@@H]1[C@@H](C)[C@]2(O)[C@@H]3C=C(C)C(=O)[C@H]3CC(COC(C)=O)=C[C@H]2[C@@H]2C(C)(C)[C@]12OC(C)=O`: the TGI came to 33.8 µM with HOP-62 NSCLC; 116 µM in the assay with OVCAR-8 ovarian; 92.3 µM in the assay with UO-31 renal; 104 µM with SK-MEL-2 melanoma; 98.6 µM in the assay on NCI-H23 lung; 105 µM with EKVX NSCLC. For the same compound, the TGI in the assay with KM20L2 colon came out at 88.8 µM; with DLD-1 colon it was 57.2 µM; in the assay with SF-295 CNS, 39.5 µM; in the assay on IGROV1 ovarian, 109 µM; in the assay on SNB-78 CNS, 152 µM; with DMS 114 small cell lung, 94.6 µM. Moreover, the TGI is 57.7 µM in the assay on LOX IMVI melanoma, 86.7 µM with SK-MEL-28 melanoma, 51.4 µM in the assay on OVCAR-4 ovarian and 57.5 µM in the assay with HCT-116 colon.
